PMC9513230, “Inhibition of Plasmodium falciparum Hsp70-Hop partnership by 2-phenylthynesulfonamide” (Frontiers in Molecular Biosciences, 2022)

How the values were obtained:
[1] = molecular target: PfHsp70-1NBD (Plasmodium falciparum, UniProt Q8IB24); assay: SPR equilibrium binding to immobilized PfHsp70-1NBD; conditions: ligand PfHsp70-1NBD immobilized, 25°C
Procedure: The steady-state equilibrium binding kinetics for the inhibitors on either PfHsp70-1 or PfHop were investigated using BioNavis Navi 420A ILVES multi-parametric surface plasmon resonance (MP-SPR) system (BioNavis, Finland) following a previously described method ([Lebepe et al., 2020]; [Chakafana et al., 2021]). Briefly, filter-sterilized de-gassed PBS (4.3 mM Na2HPO4, 1.4 mM KH2PO4, 137 mM NaCl, 3 mM KCl, 0.005% (v/v) Tween 20, and 20 mM EDTA; pH 7.4) was used as running buffer for the assay. The ligand (0.1 μg/ml of PfHsp70-1/PfHop) was immobilized onto a carboxymethyl dextran (CMD 3-D) gold sensor chip through amine coupling. […] Similarly, as controls nucleotides (5 µM ATP/ADP) and a known P. falciparum Hsp70 inhibitor, (−)-Epigallocatechin-3-gallate (EGCG; [Zininga et al., 2017b]) were similarly injected at varying final concentrations (0, 1.25, 2.5, 5, 10, 20 nM) over the chip surface. […] The data generated were analyzed using Data Viewer (BioNavis, Finland) after subtraction of baseline (signals generated on the chip surface without protein immobilized and buffer without inhibitor). The resultant sensorgrams were analyzed to determine the equilibrium binding affinities using Trace Drawer software version 1.8 (Ridgeview Instruments; Sweden).

[2] = molecular target: T1, PfHop (Plasmodium falciparum, UniProt Q8ILC1); assay: Intrinsic fluorescence analysis of PfHop tertiary structure; conditions: PfHop 4 µM with 20 µM PES, excitation 295 nm; apo state 339 nm
T1 construct: His; made in house; host or cells: E. coli XL1 Blue
T1 sequence (Q8ILC1 1-564): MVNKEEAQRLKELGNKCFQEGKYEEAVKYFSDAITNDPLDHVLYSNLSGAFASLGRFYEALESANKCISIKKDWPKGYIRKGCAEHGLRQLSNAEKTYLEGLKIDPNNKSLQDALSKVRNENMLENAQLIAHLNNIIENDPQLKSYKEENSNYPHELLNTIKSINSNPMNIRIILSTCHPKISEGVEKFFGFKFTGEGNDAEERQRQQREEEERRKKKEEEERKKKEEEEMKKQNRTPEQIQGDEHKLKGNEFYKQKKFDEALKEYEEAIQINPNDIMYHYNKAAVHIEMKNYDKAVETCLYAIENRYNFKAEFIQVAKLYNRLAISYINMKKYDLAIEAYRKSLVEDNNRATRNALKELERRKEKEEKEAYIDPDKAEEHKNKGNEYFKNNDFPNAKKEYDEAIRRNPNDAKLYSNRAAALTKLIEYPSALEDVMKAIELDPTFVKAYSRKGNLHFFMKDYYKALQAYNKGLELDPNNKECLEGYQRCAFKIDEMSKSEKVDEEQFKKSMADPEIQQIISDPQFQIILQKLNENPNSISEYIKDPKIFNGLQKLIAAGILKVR
Procedure: The effect of PES on the tertiary structural conformation of recombinant PfHsp70-1 and PfHop proteins relative to the nucleotide-dependent conformations were assessed by monitoring intrinsic fluorescence as previously described ([Zininga et al., 2016]; [Lebepe et al., 2020]). […] The assay was repeated in the presence of 20 µM PES. Fluorescence emission spectra were monitored at 300–400 nm after initial excitation at 295 nm. The spectra data collected from seven spectral scans were averaged and processed taking into account the baseline (effect of buffer in the absence of protein).

[3] = test system: PfHsp70-1; assay: MDH heat-induced aggregation suppression (holdase chaperone activity); assay type: biochemical, Plasmodium falciparum; conditions: MDH aggregation at 51°C, 360 nm; PES 5-100 nM
Procedure: In the current study, we investigated the effect of PES on the holdase chaperone activity of PfHsp70-1. The assay was initiated by adding 1,25 µM MDH and 0,75 µM PfHsp70-1 to the assay buffer (50 mM Tris-HCl, 100 mM NaCl; pH 7.4) and heated to 51°C. Aggregation of MDH was monitored as a function of light scattering at 360 nm over 30 min at 51°C in a SpectraMax M3 (Molecular Devices, United States) microplate spectrometer. The assay was repeated at varying final concentrations (5, 15, 25, 50, 100 nM) of PES. The chaperone function of PfHsp70-1 under various experimental conditions was compared to the activity of the chaperone recorded in the absence of nucleotide. Statistical analysis was conducted using a student t-test and a p < 0.05 represented functionally significant variation.

[4] = molecular target: T1, PfHop; assay: SPR equilibrium binding to immobilized PfHop; conditions: SPR, ligand PfHop immobilized, 25°C; read-out: KD
Procedure: The steady-state equilibrium binding kinetics for the inhibitors on either PfHsp70-1 or PfHop were investigated using BioNavis Navi 420A ILVES multi-parametric surface plasmon resonance (MP-SPR) system (BioNavis, Finland) following a previously described method ([Lebepe et al., 2020]; [Chakafana et al., 2021]). Briefly, filter-sterilized de-gassed PBS (4.3 mM Na2HPO4, 1.4 mM KH2PO4, 137 mM NaCl, 3 mM KCl, 0.005% (v/v) Tween 20, and 20 mM EDTA; pH 7.4) was used as running buffer for the assay. The ligand (0.1 μg/ml of PfHsp70-1/PfHop) was immobilized onto a carboxymethyl dextran (CMD 3-D) gold sensor chip through amine coupling. PES was injected (flow rate of 50 μl/min) as analyte at varying final concentrations (0, 1.25, 2.5, 5, 10, 20 nM). […] Steady-state equilibrium was achieved after allowing the interaction to occur for 8 min at 25°C, followed by dissociation for 4 min at 25°C, respectively. The data generated were analyzed using Data Viewer (BioNavis, Finland) after subtraction of baseline (signals generated on the chip surface without protein immobilized and buffer without inhibitor). The resultant sensorgrams were analyzed to determine the equilibrium binding affinities using Trace Drawer software version 1.8 (Ridgeview Instruments; Sweden).

[5] = molecular target: PfHsp70-1-PfHop association (Plasmodium falciparum, UniProt Q8IB24+Q8ILC1); assay: ELISA for the direct association of PfHsp70-1 and PfHop; assay type: biochemical
Procedure: An enzyme-linked immunosorbent assay (ELISA) was used to validate the effect of PES on the direct association of PfHsp70-1 and PfHop following a previously described protocol ([Mabate et al., 2018]). Briefly, ligand (5 μg/ml of PfHsp70-1) suspended in 5 mM sodium bicarbonate (NaHCO3) at pH 9.5 was noncovalently immobilized onto a 96 well plate overnight at 4 C. BSA (5 μg/ml) was used as a ligand for the negative control. The wells were washed with 150 µl TBST which contains (Tris-buffered saline- Tween (TBST; 20 mM Tris HCl, pH 7.5, 500 mM NaCl supplemented with 0.1% Tween 20) prior to blocking with 5% fat-free milk in TBST and incubated at 25 C for 1 h. The wells were washed using TBST for a total of 10 min. Varying concentrations (0–1,000 nM) of analyte PfHop were added to the wells and incubated for 2 h at 25 °C. To remove the unbound analyte, the plate was washed with 150 µl TBST three times before the addition of rabbit-raised α-PfHop antibody (1: 4,000) followed by incubation at 25°C for 1 h. Subsequently, the wells were washed with 150 µl TBST three times before the addition of 100 µl secondary HRP conjugated goat-raised α-rabbit antibody (1: 4,000) and incubated for 45 min at 25 °C. The substrate, 3,3’5,5’ –tetramethylbenzidine (TMB) (Bio Scientific, United States) was added into the wells and incubated for 2 min at 25 C. Color development was monitored by recording absorbance readings at 370 nm at 5 min time intervals for 30 min using a SpectraMax M3 Microplate reader (Molecular Devices, United States). To determine the effect of the inhibitor, the assay was conducted in the presence of 25 µM) of PES. […] Furthermore, the assay was repeated interchanging the ligand and analyte to validate data reproducibility. The generated data were analyzed taking into account the background signal generated by BSA which served as the control protein. The absorbance values obtained at the highest concentration of each analyte were averaged to represent maximum (100%) binding. Titration curves were then generated using GraphPad Prism 9.3.1 (GraphPad Software, United States). The relative binding affinities of PES under each experimental setting were normalized relative to the affinity estimated for assay conducted in the absence of nucleotide at the highest concentration of PfHop. Statistical analysis was conducted to establish significant differences at p < 0.05 using a student t-test.

[6] = test system: Asexual P. falciparum strain 3D7 parasites; assay: Parasite growth inhibition assay (SYBR Gold); assay type: cell-based; conditions: Plasmodium falciparum; P. falciparum 3D7, asexual blood stage, 96 h, n = 3; read-out: IC50 parasite growth
Procedure: Parasite growth without any drug present, which allowed the parasites to proliferate unrestricted, was used as negative drug control. SYBRTM Gold DNA stain (Invitrogen, ThermoFisher Scientific Inc., Germany) was used to measure the proliferation of the parasites compared to the controls as previously described ([[…] al., 2004]). Fluorescence was measured using a TECAN Spark® multimode microplate reader (Tecan Trading AG, Switzerland) and the data were analyzed using SigmaPlot, version 12 (Systat Software Inc., IL, United States).

Sequence of PfHsp70-1-PfHop association (Q8IB24 entry or part of it, one chain of several): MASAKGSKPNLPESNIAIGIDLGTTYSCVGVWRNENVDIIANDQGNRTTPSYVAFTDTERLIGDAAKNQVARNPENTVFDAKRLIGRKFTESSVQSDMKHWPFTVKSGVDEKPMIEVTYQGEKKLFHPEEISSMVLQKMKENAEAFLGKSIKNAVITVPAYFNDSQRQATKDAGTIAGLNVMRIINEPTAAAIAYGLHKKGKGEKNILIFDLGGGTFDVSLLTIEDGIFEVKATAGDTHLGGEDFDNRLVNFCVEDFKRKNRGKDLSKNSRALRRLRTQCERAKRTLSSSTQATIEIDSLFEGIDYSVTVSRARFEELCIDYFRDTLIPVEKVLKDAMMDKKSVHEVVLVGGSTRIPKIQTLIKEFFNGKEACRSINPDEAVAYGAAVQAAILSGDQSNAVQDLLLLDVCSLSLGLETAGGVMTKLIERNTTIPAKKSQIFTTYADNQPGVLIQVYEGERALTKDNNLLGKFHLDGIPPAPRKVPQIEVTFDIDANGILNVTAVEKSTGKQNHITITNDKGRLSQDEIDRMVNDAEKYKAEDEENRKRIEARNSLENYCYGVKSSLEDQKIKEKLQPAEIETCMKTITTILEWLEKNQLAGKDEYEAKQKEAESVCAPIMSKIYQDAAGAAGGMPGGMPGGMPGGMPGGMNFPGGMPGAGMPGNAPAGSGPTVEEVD
Sequence of PfHsp70-1NBD (Q8IB24 entry or part of it): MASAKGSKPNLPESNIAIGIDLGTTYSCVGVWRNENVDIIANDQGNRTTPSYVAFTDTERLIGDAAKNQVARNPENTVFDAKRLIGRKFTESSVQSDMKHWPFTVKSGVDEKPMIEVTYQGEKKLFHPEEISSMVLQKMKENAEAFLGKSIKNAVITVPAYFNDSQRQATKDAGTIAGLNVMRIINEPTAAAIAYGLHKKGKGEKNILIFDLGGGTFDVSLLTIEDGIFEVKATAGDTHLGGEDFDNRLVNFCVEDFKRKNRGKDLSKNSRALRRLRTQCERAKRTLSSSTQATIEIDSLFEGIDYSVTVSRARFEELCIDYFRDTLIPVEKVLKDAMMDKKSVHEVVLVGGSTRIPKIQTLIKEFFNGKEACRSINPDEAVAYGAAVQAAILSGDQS

SMILES: NS(=O)(=O)C#Cc1ccccc1 [PES, 2-Phenylthynesulfonamide]
- Kd [1]: 7390 ± 90 nM
- Fluorescence emission peak [2]: 340 nm
- Effect on holdase chaperone activity of PfHsp70-1 [3]: inhibited the chaperone activity of PfHsp70-1 in a concentration-dependent fashion
- Kd [4]: 707 ± 70 nM
- Effect on association of PfHsp70-1 and PfHop ([5]; 25 µM nucleotide or inhibitor): abrogated the interaction of PfHsp70-1 and PfHop
- IC50 ([5]; ligand PfHop, analyte PfHsp70-1): 38.1 ± 3.6 nM
- IC50 ([5]; ligand PfHsp70-1, analyte PfHop): 32.4 ± 2.1 nM
- IC50 [6]: 38700 ± 700 nM
